# Laboratory results: PMC4657531 (EXCLI Journal, 2013)
# Test system: β-glucosidase
# Experiment: DNS reducing sugar assay, Lineweaver-Burk plot
# Format: biochemical, Penicillium simplicissimum
# Conditions: citrate buffer pH 4.8, 50 °C, 30 min; salicin 5-50 mg/ml
smiles,measurement,value
OCc1ccccc1O[C@@H]1O[C@H](CO)[C@@H](O)[C@H](O)[C@H]1O [salicin],Km,14.881 mg/mL
